Like-named read-outs stand apart in the source and are kept apart here.
Assays:
[1] = target: T1, Recombinant His-tagged NAMPT (Homo sapiens, UniProt P43490); assay: Biochemical inhibition assay: NAMPT enzymatic reaction, NMN quantified by mass spectrometry; details: 33 nM NAMPT, 1 μM NAM, 100 μM PRPP, 30 minutes at room temperature, read-out: Biochem IC50
T1 construct: His; host or cells: E. coli
Method in brief: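 Reaction 30 min at room temperature with 1 μM NAM, 100 μM PRPP, 2.5 mM ATP (final), quenched with formic acid. NMN quantified by RapidFire electrospray MS, normalized to L-cystathionine; IC50 from percent inhibition versus DMSO.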

[2] = system: A2780 cells; assay: In-vitro cell proliferation assay (SRB, 72 hours); type: cell-based; details: sulforhodamine B (SRB) assay
Method in brief: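 Viable cells measured by TCA fixation and SRB staining, absorbance 570 nm; % inhibition vs DMSO control after media-only background subtraction, interpolated between two bracketing concentrations.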

T1 sequence (P43490 whole entry): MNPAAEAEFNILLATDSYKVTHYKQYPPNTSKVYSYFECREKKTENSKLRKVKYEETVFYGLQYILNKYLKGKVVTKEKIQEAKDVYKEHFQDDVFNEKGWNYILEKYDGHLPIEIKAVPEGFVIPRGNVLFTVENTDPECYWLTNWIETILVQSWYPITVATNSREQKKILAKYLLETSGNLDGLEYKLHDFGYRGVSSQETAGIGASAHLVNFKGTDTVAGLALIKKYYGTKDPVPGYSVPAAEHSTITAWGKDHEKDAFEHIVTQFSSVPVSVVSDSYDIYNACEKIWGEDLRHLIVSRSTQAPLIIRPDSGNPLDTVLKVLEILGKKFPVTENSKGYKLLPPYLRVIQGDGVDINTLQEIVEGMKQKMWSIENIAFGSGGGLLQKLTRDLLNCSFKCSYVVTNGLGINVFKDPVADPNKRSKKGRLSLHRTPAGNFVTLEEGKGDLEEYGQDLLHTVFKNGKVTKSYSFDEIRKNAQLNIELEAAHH

SMILES	IC50 ([1]; 2.5 mM ATP)	IC50 ([2]; Homo sapiens)	IC50 ([1]; […] ATP)	IC50 [2]
CC(C)c1ncoc1C(=O)N1CCC(CCCCNC(=O)c2cc3cnccc3[nH]2)CC1 [N-[4-(1-{[4-(propan-2-yl)-1,3-oxazol-5-yl]carbonyl}piperidin-4-yl)butyl]-1H-pyrrolo[3,2-c]pyridine-2-carboxamide]	30.4 nM	5.3 nM		
CC(C)c1ncoc1C(=O)N1CCC(CCCCNC(=O)c2ccc3nccn3c2)CC1 [N-[4-(1-{[4-(propan-2-yl)-1,3-oxazol-5-yl]carbonyl}piperidin-4-yl)butyl]imidazo[1,2-a]pyridine-6-carboxamide]	27.5 nM	8.2 nM		
CC(C)Oc1ccc(C(=O)N2CCC(CCCCNC(=O)c3cc4cnccc4[nH]3)CC2)cc1 [N-[4-(1-{[4-(propan-2-yloxy)phenyl]carbonyl}piperidin-4-yl)butyl]-1H-pyrrolo[3,2-c]pyridine-2-carboxamide]	93.7 nM	13.1 nM		
CC(C)Oc1ccc(C(=O)N2CCC(CCCCNC(=O)c3ccc4nccn4c3)CC2)cc1 [N-[4-(1-{[4-(propan-2-yloxy)phenyl]carbonyl}piperidin-4-yl)butyl]imidazo[1,2-a]pyridine-6-carboxamide]	55.2 nM	20.9 nM		
CC(C)Oc1ccc(C(=O)N2CCC(CCCCNC(=O)c3cc4ccncc4s3)CC2)cc1 [N-[4-(1-{[4-(propan-2-yloxy)phenyl]carbonyl}piperidin-4-yl)butyl]thieno[2,3-c]pyridine-2-carboxamide]	40 nM	100 to 1000 nM		
O=C(NCCCCC1CCN(S(=O)(=O)c2ccc(OC(F)(F)F)cc2)CC1)c1cc2cnccc2[nH]1 [N-[4-(1-{[4-(trifluoromethoxy)benzene]sulfonyl}piperidin-4-yl)butyl]-1H-pyrrolo[3,2-c]pyridine-2-carboxamide]			76 nM	27.2 nM
O=C(NCCCCC1CCN(C(=O)c2ccc(OC(F)(F)F)cc2)CC1)c1cc2cnccc2[nH]1 [N-[4-(1-{[4-(trifluoromethoxy)phenyl]carbonyl}piperidin-4-yl)butyl]-1H-pyrrolo[3,2-c]pyridine-2-carboxamide]	145 nM	12.7 nM		
O=C(NCCCCC1CCN(C(=O)c2ccc(OC(F)(F)F)cc2)CC1)c1ccc2nccn2c1 [N-[4-(1-{[4-(trifluoromethoxy)phenyl]carbonyl}piperidin-4-yl)butyl]imidazo[1,2-a]pyridine-6-carboxamide]	91 nM	100 to 1000 nM		
O=C(NCCCCC1CCN(C(=O)c2ccc(OC(F)(F)F)cc2)CC1)c1cc2ccncc2s1 [N-[4-(1-{[4-(trifluoromethoxy)phenyl]carbonyl}piperidin-4-yl)butyl]thieno[2,3-c]pyridine-2-carboxamide]	166 nM	100 to 1000 nM		
O=C(NCCCCC1CCN(S(=O)(=O)c2ccc(C(F)(F)F)cc2)CC1)c1cc2cnccc2[nH]1 [N-[4-(1-{[4-(trifluoromethyl)benzene]sulfonyl}piperidin-4-yl)butyl]-1H-pyrrolo[3,2-c]pyridine-2-carboxamide]	74.8 nM	23.3 nM		
O=C(NCCCCC1CCN(C(=O)c2ccc(C(F)(F)F)cc2)CC1)c1cc2cnccc2[nH]1 [N-[4-(1-{[4-(trifluoromethyl)phenyl]carbonyl}piperidin-4-yl)butyl]-1H-pyrrolo[3,2-c]pyridine-2-carboxamide]	164 nM	38.1 nM		
O=C(NCCCCC1CCN(C(=O)c2ccc(C(F)(F)F)cc2)CC1)c1ccc2nccn2c1 [N-[4-(1-{[4-(trifluoromethyl)phenyl]carbonyl}piperidin-4-yl)butyl]imidazo[1,2-a]pyridine-6-carboxamide]	152 nM	100 to 1000 nM		
O=C(NCCCCC1CCN(C(=O)c2ccc(C(F)(F)F)cc2)CC1)c1cc2ccncc2s1 [N-[4-(1-{[4-(trifluoromethyl)phenyl]carbonyl}piperidin-4-yl)butyl]thieno[2,3-c]pyridine-2-carboxamide]	305 nM	1000 nM		
O=C(NCCCCC1CCN(C(=O)c2cnccc2C(F)(F)F)CC1)c1cc2cnccc2[nH]1 [N-[4-(1-{[4-(trifluoromethyl)pyridin-3-yl]carbonyl}piperidin-4-yl)butyl]-1H-pyrrolo[3,2-c]pyridine-2-carboxamide]	39.8 nM	2.9 nM		
O=C(NCCCCC1CCN(C(=O)c2cnccc2C(F)(F)F)CC1)c1ccc2nccn2c1 [N-[4-(1-{[4-(trifluoromethyl)pyridin-3-yl]carbonyl}piperidin-4-yl)butyl]imidazo[1,2-a]pyridine-6-carboxamide]	15.6 nM	3.8 nM		
O=C(NCCCCC1CCN(C(=O)c2cnccc2C(F)(F)F)CC1)c1cc2ccncc2s1 [N-[4-(1-{[4-(trifluoromethyl)pyridin-3-yl]carbonyl}piperidin-4-yl)butyl]thieno[2,3-c]pyridine-2-carboxamide]	9.9 nM	6.9 nM		
COCc1ccc(C(=O)N2CCC(CCCCNC(=O)c3cc4cnccc4[nH]3)CC2)nc1 [N-[4-(1-{[5-(methoxymethyl)pyridin-2-yl]carbonyl}piperidin-4-yl)butyl]-1H-pyrrolo[3,2-c]pyridine-2-carboxamide]	31.1 nM	14.2 nM		
COCc1ccc(C(=O)N2CCC(CCCCNC(=O)c3ccc4nccn4c3)CC2)nc1 [N-[4-(1-{[5-(methoxymethyl)pyridin-2-yl]carbonyl}piperidin-4-yl)butyl]imidazo[1,2-a]pyridine-6-carboxamide]	57.4 nM	67.1 nM		
CC(C)c1ccc(C(=O)N2CCC(CCCCNC(=O)c3cc4cnccc4[nH]3)CC2)nc1 [N-[4-(1-{[5-(propan-2-yl)pyridin-2-yl]carbonyl}piperidin-4-yl)butyl]-1H-pyrrolo[3,2-c]pyridine-2-carboxamide]	163 nM	14.1 nM		
CC(C)c1ccc(C(=O)N2CCC(CCCCNC(=O)c3ccc4nccn4c3)CC2)nc1 [N-[4-(1-{[5-(propan-2-yl)pyridin-2-yl]carbonyl}piperidin-4-yl)butyl]imidazo[1,2-a]pyridine-6-carboxamide]	56.7 nM	52.9 nM		
CC(C)c1ccc(C(=O)N2CCC(CCCCNC(=O)c3cc4ccncc4s3)CC2)nc1 [N-[4-(1-{[5-(propan-2-yl)pyridin-2-yl]carbonyl}piperidin-4-yl)butyl]thieno[2,3-c]pyridine-2-carboxamide]	89.8 nM	100 to 1000 nM		
O=C(NCCCCC1CCN(C(=O)c2ccc(C(F)(F)F)cn2)CC1)c1cc2cnccc2[nH]1 [N-[4-(1-{[5-(trifluoromethyl)pyridin-2-yl]carbonyl}piperidin-4-yl)butyl]-1H-pyrrolo[3,2-c]pyridine-2-carboxamide]	137 nM	59.6 nM		
O=C(NCCCCC1CCN(C(=O)c2ccc(C(F)(F)F)cn2)CC1)c1cc2ccncc2s1 [N-[4-(1-{[5-(trifluoromethyl)pyridin-2-yl]carbonyl}piperidin-4-yl)butyl]thieno[2,3-c]pyridine-2-carboxamide]	91.8 nM	100 to 1000 nM		
O=C(NCCCCC1CCN(C(=O)c2ccc(N3CCOCC3)nc2)CC1)c1cc2cnccc2[nH]1 [N-[4-(1-{[6-(morpholin-4-yl)pyridin-3-yl]carbonyl}piperidin-4-yl)butyl]-1H-pyrrolo[3,2-c]pyridine-2-carboxamide]	64.7 nM	3.4 nM		

— US9555039B2, “Piperidine derivatives and compositions for the inhibition of nicotinamide phosphoribosyltransferase (NAMPT)” (Forma TM, LLC., priority 2011, dated 2017)
